The results in this text go back to patent US20120121591A1 (priority 2009, published 2012).

Common to all, as to assay type: cell-based
The target of one assay is hKv1.3 (Homo sapiens, UniProt P22001). Description: cell-based. To be noted: Kv1.3 (IWQ) IC50 (nM, Avg).
In assay [1] the test system is IL-2 secretion from T cells in human whole blood. The settings on record: read-out: WB (IL-2) IC50 (nM, Avg).
The subject of assay [2] is IFN-g secretion from T cells in human whole blood. The settings on record: read-out: WB (IFNg) IC50 (nM, Avg).

hKv1.3, sequence (P22001 whole entry): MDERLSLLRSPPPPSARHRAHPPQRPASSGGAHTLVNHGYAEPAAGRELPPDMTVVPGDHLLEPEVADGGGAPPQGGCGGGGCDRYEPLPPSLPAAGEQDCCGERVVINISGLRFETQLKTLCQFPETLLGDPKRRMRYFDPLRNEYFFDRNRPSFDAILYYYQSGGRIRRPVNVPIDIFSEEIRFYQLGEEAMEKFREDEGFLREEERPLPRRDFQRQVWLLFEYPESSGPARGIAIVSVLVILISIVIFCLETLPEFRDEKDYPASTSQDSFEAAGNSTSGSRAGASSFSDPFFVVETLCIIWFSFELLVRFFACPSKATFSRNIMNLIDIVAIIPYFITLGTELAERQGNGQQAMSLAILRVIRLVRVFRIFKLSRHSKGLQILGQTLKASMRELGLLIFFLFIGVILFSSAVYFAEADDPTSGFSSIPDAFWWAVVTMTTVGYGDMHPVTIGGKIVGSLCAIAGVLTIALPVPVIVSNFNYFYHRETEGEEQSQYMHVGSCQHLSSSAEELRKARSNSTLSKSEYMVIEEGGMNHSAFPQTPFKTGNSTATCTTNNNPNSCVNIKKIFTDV

As for `CC[C@H](C)[C@@H]1NC(=O)[C@H]([C@@H](C)O)NC(=O)[C@H](CC(=O)O)NC(=O)[C@H](CCC(=O)O)NC(=O)[C@@H](NC(=O)[C@H](CO)NC(=O)[C@@H](N)CCCNC(=N)N)CSSC[C@@H](C(N)=O)NC(=O)[C@H]([C@@H](C)O)NC(=O)CNC(=O)[C@@H]2CSSC[C@@H]3NC(=O)[C@H](CCCCN)NC(=O)[C@H](Cc4ccccc4)NC(=O)[C@H](C)NC(=O)[C@H]([C@@H](C)O)NC(=O)[C@H](CSSC[C@H](NC(=O)[C@H](Cc4ccccc4)NC(=O)[C@H](CO)NC(=O)[C@H](CC(C)C)NC(=O)[C@H](CCCNC(=N)N)NC(=O)[C@H](Cc4ccc(O)cc4)NC(=O)[C@H](CCCCN)NC(=O)[C@H]([C@@H](C)O)NC(=O)[C@H](CO)NC(=O)[C@H](Cc4c[nH]cn4)NC(=O)[C@H](CCCCN)NC3=O)C(=O)N[C@@H](CCCNC(=N)N)C(=O)N[C@@H](CCCCN)C(=O)N[C@@H]([C@@H](C)O)C(=O)N2)NC(=O)[C@H](CCCNC(=N)N)NC(=O)[C@H](CO)NC(=O)[C@H](CCCCN)NC(=O)[C@@H]2CCCN2C1=O` [[Glu4, Lys16,Thr21]ShK-amide], the concentration for half-maximal inhibition (IC50) on hKv1.3 was found to be 0.085 nM; in assay [1] it was 1.38 nM; in assay [2], 3.94 nM.

`CCCC[C@@H]1NC(=O)[C@H](CO)NC(=O)[C@H](Cc2c[nH]cn2)NC(=O)[C@H](CCCCN)NC(=O)[C@@H]2CSSC[C@@H]3NC(=O)[C@H]([C@@H](C)O)NC(=O)[C@H](CCCCN)NC(=O)[C@H](CCCNC(=N)N)NC(=O)[C@H](CSSC[C@H](NC(=O)[C@H](CCCNC(=N)N)NC(=O)[C@H](CO)NC(=O)[C@H](CCCCN)NC(=O)[C@@H]4CCCN4C(=O)[C@H]([C@@H](C)CC)NC(=O)[C@H]([C@@H](C)O)NC(=O)[C@H](CC(=O)O)NC(=O)[C@H](CCC(=O)O)NC(=O)[C@@H](NC(=O)[C@H](CO)NC(=O)[C@@H](N)CCCNC(=N)N)CSSC[C@@H](C(N)=O)NC(=O)[C@H]([C@@H](C)O)NC(=O)CNC3=O)C(=O)N[C@@H]([C@@H](C)O)C(=O)N[C@@H](C)C(=O)N[C@@H](C)C(=O)N[C@@H](CCCCN)C(=O)N2)NC(=O)[C@H](Cc2ccccc2)NC(=O)[C@H](CO)NC(=O)[C@H](CC(C)C)NC(=O)[C@H](CCCNC(=N)N)NC(=O)[C@H](Cc2ccc(O)cc2)NC(=O)[C@H](CCCCN)NC1=O` [[Glu4,A1a15,Lys16,Nle21]ShK-amide]: the IC50 is 0.168 nM at hKv1.3, 0.856 nM in assay [1] and 0.901 nM in assay [2].

For `CCCC[C@@H]1NC(=O)[C@H](CO)NC(=O)[C@H](Cc2c[nH]cn2)NC(=O)[C@H](CCCCN)NC(=O)[C@@H]2CSSC[C@@H]3NC(=O)[C@H]([C@@H](C)O)NC(=O)[C@H](CCCNC(=N)N)NC(=O)[C@H](CCCNC(=N)N)NC(=O)[C@H](CSSC[C@H](NC(=O)[C@H](CCCNC(=N)N)NC(=O)[C@H](CO)NC(=O)[C@H](CCCCN)NC(=O)[C@@H]4CCCN4C(=O)[C@H]([C@@H](C)CC)NC(=O)[C@H]([C@@H](C)O)NC(=O)[C@H](CC(=O)O)NC(=O)[C@H](CCC(=O)O)NC(=O)[C@@H](NC(=O)[C@H](CO)NC(=O)[C@@H](N)CCCNC(=N)N)CSSC[C@@H](C(N)=O)NC(=O)[C@H]([C@@H](C)O)NC(=O)CNC3=O)C(=O)N[C@@H]([C@@H](C)O)C(=O)N[C@@H](C)C(=O)N[C@@H](C)C(=O)N[C@@H](CCCCN)C(=O)N2)NC(=O)[C@H](Cc2ccccc2)NC(=O)[C@H](CO)NC(=O)[C@H](CC(C)C)NC(=O)[C@H](CCCNC(=N)N)NC(=O)[C@H](Cc2ccc(O)cc2)NC(=O)[C@H](CCCCN)NC1=O` [[Glu4,Ala15,Lys16,Nle21, Arg30]ShK-amide], the IC50 at hKv1.3 is 0.118 nM; in assay [1] it was 0.647 nM; in assay [2] it was 0.816 nM.

`CC[C@H](C)[C@@H]1NC(=O)[C@H]([C@@H](C)O)NC(=O)[C@H](CC(=O)O)NC(=O)[C@H](CCC(=O)O)NC(=O)[C@@H](NC(=O)[C@H](CO)NC(=O)[C@@H](N)CCCNC(=N)N)CSSC[C@@H](C(=O)O)NC(=O)[C@H]([C@@H](C)O)NC(=O)CNC(=O)[C@@H]2CSSC[C@@H]3NC(=O)[C@H](CCCCN)NC(=O)[C@H](C)NC(=O)[C@H](C)NC(=O)[C@H]([C@@H](C)O)NC(=O)[C@H](CSSC[C@H](NC(=O)[C@H](Cc4ccccc4)NC(=O)[C@H](CO)NC(=O)[C@H](CC(C)C)NC(=O)[C@H](CCCNC(=N)N)NC(=O)[C@H](Cc4ccc(O)cc4)NC(=O)[C@H](CCCCN)NC(=O)[C@H](CCSC)NC(=O)[C@H](CO)NC(=O)[C@H](Cc4c[nH]cn4)NC(=O)[C@H](CCCCN)NC3=O)C(=O)N[C@@H](CCCNC(=N)N)C(=O)N[C@@H](CCCNC(=N)N)C(=O)N[C@@H]([C@@H](C)O)C(=O)N2)NC(=O)[C@H](CCCNC(=N)N)NC(=O)[C@H](CCCNC(=N)N)NC(=O)[C@H](CCCCN)NC(=O)[C@@H]2CCCN2C1=O` [[Glu4,Arg10,30,A1a15,Lys16]ShK]: the half-maximal inhibitory concentration (IC50) against hKv1.3 stood at 0.14 nM; in assay [1] it was 0.209 nM; in assay [2], 0.305 nM.

As to `CC[C@H](C)[C@@H]1NC(=O)[C@H]([C@@H](C)O)NC(=O)[C@H](CC(=O)O)NC(=O)[C@H](CCC(=O)O)NC(=O)[C@@H](NC(=O)[C@H](CO)NC(=O)[C@@H](N)CCCNC(=N)N)CSSC[C@@H](C(=O)N[C@@H](C)C(=O)O)NC(=O)[C@H]([C@@H](C)O)NC(=O)CNC(=O)[C@@H]2CSSC[C@@H]3NC(=O)[C@H](CCCCN)NC(=O)[C@H](Cc4ccccc4)NC(=O)[C@H](C)NC(=O)[C@H]([C@@H](C)O)NC(=O)[C@H](CSSC[C@H](NC(=O)[C@H](Cc4ccccc4)NC(=O)[C@H](CO)NC(=O)[C@H](CC(C)C)NC(=O)[C@H](CCCNC(=N)N)NC(=O)[C@H](Cc4ccc(O)cc4)NC(=O)[C@H](CCCCN)NC(=O)[C@H](CCC(N)=O)NC(=O)[C@H](CO)NC(=O)[C@H](Cc4c[nH]cn4)NC(=O)[C@H](CCCCN)NC3=O)C(=O)N[C@@H](CCCNC(=N)N)C(=O)N[C@@H](CCCCN)C(=O)N[C@@H]([C@@H](C)O)C(=O)N2)NC(=O)[C@H](CCCNC(=N)N)NC(=O)[C@H](CO)NC(=O)[C@H](CCCCN)NC(=O)[C@@H]2CCCN2C1=O` [[Glu4,Lys16,Gln21]ShK-Ala], the concentration for half-maximal inhibition (IC50) on hKv1.3 was found to be 26.4 nM; in assay [1], 0.137 nM; in assay [2] it was 0.265 nM.

With `CCCC[C@@H]1NC(=O)[C@H](CO)NC(=O)[C@H](Cc2c[nH]cn2)NC(=O)[C@H](CCCCN)NC(=O)[C@@H]2CSSC[C@@H]3NC(=O)[C@H]([C@@H](C)O)NC(=O)[C@H](CCCCN)NC(=O)[C@H](CCCNC(=N)N)NC(=O)[C@H](CSSC[C@H](NC(=O)[C@H](CCCNC(=N)N)NC(=O)[C@H](CO)NC(=O)[C@H](CCCCN)NC(=O)[C@@H]4CCCN4C(=O)[C@H]([C@@H](C)CC)NC(=O)[C@H]([C@@H](C)O)NC(=O)[C@H](CC(=O)O)NC(=O)[C@H](CCC(=O)O)NC(=O)[C@@H](NC(=O)[C@H](CO)NC(=O)[C@@H](N)CCCNC(=N)N)CSSC[C@@H](C(=O)N[C@@H](C)C(=O)O)NC(=O)[C@H]([C@@H](C)O)NC(=O)CNC3=O)C(=O)N[C@@H]([C@@H](C)O)C(=O)N[C@@H](C)C(=O)N[C@@H](Cc3ccccc3)C(=O)N[C@@H](CCCCN)C(=O)N2)NC(=O)[C@H](Cc2ccccc2)NC(=O)[C@H](CO)NC(=O)[C@H](CC(C)C)NC(=O)[C@H](CCCNC(=N)N)NC(=O)[C@H](Cc2ccc(O)cc2)NC(=O)[C@H](CCCCN)NC1=O` [[Glu4,Lys16,N1e21]ShK-Ala], the IC50 was 33.3 nM on hKv1.3, 0.327 nM in assay [1] and 0.987 nM in assay [2].

Regarding `CCC[C@@H]1NC(=O)[C@H](CO)NC(=O)[C@H](Cc2c[nH]cn2)NC(=O)[C@H](CCCCN)NC(=O)[C@@H]2CSSC[C@@H]3NC(=O)[C@H]([C@@H](C)O)NC(=O)[C@H](CCCCN)NC(=O)[C@H](CCCNC(=N)N)NC(=O)[C@H](CSSC[C@H](NC(=O)[C@H](CCCNC(=N)N)NC(=O)[C@H](CO)NC(=O)[C@H](CCCCN)NC(=O)[C@@H]4CCCN4C(=O)[C@H]([C@@H](C)CC)NC(=O)[C@H]([C@@H](C)O)NC(=O)[C@H](CC(=O)O)NC(=O)[C@H](CCC(=O)O)NC(=O)[C@@H](NC(=O)[C@H](CO)NC(=O)[C@@H](N)CCCNC(=N)N)CSSC[C@@H](C(=O)N[C@@H](C)C(=O)O)NC(=O)[C@H]([C@@H](C)O)NC(=O)CNC3=O)C(=O)N[C@@H]([C@@H](C)O)C(=O)N[C@@H](C)C(=O)N[C@@H](Cc3ccccc3)C(=O)N[C@@H](CCCCN)C(=O)N2)NC(=O)[C@H](Cc2ccccc2)NC(=O)[C@H](CO)NC(=O)[C@H](CC(C)C)NC(=O)[C@H](CCCNC(=N)N)NC(=O)[C@H](Cc2ccc(O)cc2)NC(=O)[C@H](CCCCN)NC1=O` [[Glu4,Lys16,Nva21]ShK-Ala], the concentration for half-maximal inhibition (IC50) was 33.3 nM on hKv1.3, 0.208 nM in assay [1] and 0.368 nM in assay [2].

`CC[C@H](C)[C@@H]1NC(=O)[C@H]([C@@H](C)O)NC(=O)[C@H](CC(=O)O)NC(=O)[C@H](CCC(=O)O)NC(=O)[C@@H](NC(=O)[C@H](CO)NC(=O)[C@@H](N)CCCNC(=N)N)CSSC[C@@H](C(N)=O)NC(=O)[C@H]([C@@H](C)O)NC(=O)CNC(=O)[C@@H]2CSSC[C@@H]3NC(=O)[C@H](CCCCN)NC(=O)[C@H](Cc4ccccc4)NC(=O)[C@H](C)NC(=O)[C@H]([C@@H](C)O)NC(=O)[C@H](CSSC[C@H](NC(=O)[C@H](Cc4ccccc4)NC(=O)[C@H](CO)NC(=O)[C@H](CC(C)C)NC(=O)[C@H](CCCNC(=N)N)NC(=O)[C@H](Cc4ccc(O)cc4)NC(=O)[C@H](CCCCN)NC(=O)[C@H](CCSC)NC(=O)[C@H](CO)NC(=O)[C@H](Cc4c[nH]cn4)NC(=O)[C@H](CCCCN)NC3=O)C(=O)N[C@@H](CCCNC(=N)N)C(=O)N[C@@H](CCCCN)C(=O)N[C@@H]([C@@H](C)O)C(=O)N2)NC(=O)[C@H](CCCNC(=N)N)NC(=O)[C@H](CO)NC(=O)[C@H](CCCCN)NC(=O)[C@@H]2CCCN2C1=O` [[Glu4,Lys16]ShK-amide]: the concentration for half-maximal inhibition (IC50) against hKv1.3 amounted to 0.127 nM; in assay [1], 0.071 nM; in assay [2] it was 0.068 nM.

The IC50 is the point on the concentration scale where inhibition reaches its midpoint.
